Test results from PMC10487708, “Chlorin E6-Curcumin-Mediated Photodynamic Therapy Promotes an Anti-Photoaging Effect in UVB-Irradiated Fibroblasts” (International Journal of Molecular Sciences, 2023).
pIC50: −log10 of the molar value.

How the values were obtained:
[1] = system: BALB/c 3T3 cells; test: MTT cytotoxicity of Ce6-curcumin derivative PDT in BALB/c 3T3 cells; format: cell-based, mouse; conditions: Mus musculus, BALB/c3T3, light or radiation study; 3 h treatment, 660 nm 20 J/cm^2, MTT after 24 h; read-out: IC50 BALB/c 3T3 cell viability
Procedure: MTT assay was used to evaluate viability after 24 h. IC50 values were calculated using GraphPad Prism 5 software.
Hs68 and BALB/c 3T3 cell viability was measured using a 3-[4,5-dimethylthylthiazol-2-yl]-2,5 diphenyl tetrazolium bromide (MTT) assay. The cells were cultured in 24-well plates at a density of 3 × 10^4 cells per well or BALB/c 3T3 cells at a density of 1 × 10^4 cells per well. […] The Hs68 cells were then exposed to LED light (660 nm; 89 W/m^2; 20 J/cm^2) for 37 min 27 s and incubated for 3 h. […] The cells were washed and treated with MTT, after which the plates were incubated at 37 °C in the dark for 2 h. After the formation of formazan, 100 µL of DMSO was added, and the absorbance was measured at 570 nm using a microtiter plate reader (Thermo-scientific, Skanlt software 5.0, Waltham, MA, USA)

[2] = system: collagen synthesis in Hs68 cells; test: Sircol collagen assay in UVB-irradiated Hs68 cells; format: cell-based, human; conditions: 30–40 nM, UVB 200 mJ/cm^2, LED irradiated
Procedure: The amount of collagen was measured through the Sircol collagen assay kit (Figure 8).
Each scale value is shown as the mean only.
Following this, 1 mL Sirius red dye, an anionic dye that reacts specifically with the basic side chain groups of collagens under the assay conditions, was added to 300 µL of cell culture medium supernatant and incubated with gentle rotation for 30 min at room temperature. After centrifugation, the pellet was washed with ice-cold acid-salt wash reagent released in alkali reagent, and the absorbance at 570 nm was measured using an ELISA reader (Sunrise, Tecan, Männedorf, Switzerland). The amount of collagen was calculated based on a standard curve obtained with the standard bovine type I collagen supplied with the kit.

Structure (SMILES)	pIC50 [1]	collagen synthesis [2]
C=Cc1c(C)c2cc3nc(c(CC(=O)OC)c4[nH]c(cc5nc(cc1[nH]2)C(C)=C5CC)c(C)c4C(=O)NCCCOCCOCCOCCCNC(=O)CCCC(=O)Oc1ccc(/C=C/C(=O)CC(=O)/C=C/c2ccc(O)c(OC)c2)cc1OC)C(CCC(=O)OC)C3C (centres unmarked) [Ce6-diPEG-curcumin]	6.10	
C=Cc1c(C)c2cc3nc(c(CC(=O)OC)c4[nH]c(cc5nc(cc1[nH]2)C(C)=C5CC)c(C)c4C(=O)NCCCNC(=O)CCCC(=O)Oc1ccc(/C=C/C(=O)CC(=O)/C=C/c2ccc(O)c(OC)c2)cc1OC)C(CCC(=O)OC)C3C (centres unmarked) [Ce6-propane-curcumin]		increase in collagen synthesis in a dose-dependent manner
